Laboratory results: US20130145496A1, “FLAVIN ENZYME HAVING FLAVONOL 8-HYDROXYLASE ACTIVITY AND USE THEREOF” (SUNTORY HOLDINGS LIMITED, priority 2010, published 2013)

System: low density lipoprotein receptor (LDLR)
Test: not given
Conditions: through activation of extracellular signal-regulated kinase (ERK); cited from earlier work

| Structure (SMILES) | effect on LDLR |
| --- | --- |
| O=c1c(O)c(-c2ccc(O)c(O)c2)oc2c(O[C@@H]3O[C@H](CO)[C@@H](O)[C@H](O)[C@H]3O)c(O)cc(O)c12 [gossypin, gossypetin-8-glucoside] | upregulates low density lipoprotein receptor (LDLR) |

System: flavonol 8-hydroxylase (MFB088 crude enzyme)
Test: Hydroxylase activity of MFB088 crude enzyme on flavonoid substrates (UPLC-TOF MS, ion trap MS/MS)
Type: biochemical, Lotus japonicus
Conditions: 0.048 nmol substrate, FAD, NADPH, pH 7.0, 30° C., 15 minutes; product detected by UPLC-TOF MS / ion trap MS/MS; not detected in negative control
Experimental: The yeast cells were centrifuged and recovered, and then lysed using glass beads. The lysate was centrifuged at 8000×g for 10 minutes. The supernatant was recovered and further centrifuged at 15000×g for 10 minutes to give the crude enzyme fraction of the protein encoded by MFB088 (hereinafter referred to as the MFB088 crude enzyme).
MFB088 crude enzyme solution, 2 μl (containing 2.5 μg of proteins); 0.1 M KH2PO4/K2HPO4 solution (containing 0.4% ascorbic acid: pH 7.0), 88 μl; 0.048 nmol eriodictyol/5 […] of H2O; 0.001 nmol FAD and 0.48 nmol NADPH/5 μl of H2O.
NADPH was added to start the reaction. After the reaction proceeded at 30° C. for 15 minutes, 10 μl of glacial acetic acid was added to stop the reaction. An […] was further added to extract the phenol compound twice (the added […]: 70 μl and 50 μl). The organic layer was recovered and used as a sample (hereinafter referred to as “MFB088 crude enzyme reaction product”). The components were analyzed by UPLC-TOF MS and ion trap MS/MS.
For analysis of the MFB088 crude enzyme reaction product, Waters Acquity UPLC™ system (Waters Corporation) equipped with time-of-flight mass spectrometer LCT Premier (Waters Corporation, Massachusetts, USA) was used. The analysis was performed using an ACQUITY UPLC™ BEH C18 column (particle diameter of 1.7 μm, column size of 2.1 mm I.D.×100 mm, Waters Corporation) under the conditions of flow rate of 0.3 ml/min and column temperature at 40° C. Using solvent A (0.1% formic acid-acetonitrile) and solvent B (0.1% formic acid aqueous solution), the reaction product was eluted by linear gradient from 70% B in 0 minute to 70% A in 20 minutes. The reaction product was detected by the time-of-flight mass spectrometer in the cation detection mode set forth below: capillary voltage of 2500 V, sample cone of 100 V, desolvation temperature at 250° C., source temperature at 120° C., and nitrogen gas flow of 6001/hour.
The components of the MFB088 crude enzyme reaction product was analyzed by ion trap MS/MS. High performance liquid chromatography (HPLC) system Agilent 1200 series (Agilent Technologies, California, USA) equipped with ion trap mass spectrometer LTQ XL (Thermo Fisher Scientific, Massachusetts, USA) was used for the MS/MS analysis. HPLC was performed using a TSKgel ODS-80™ column (particle diameter of 5 μm, column size of 4.6 mm I.D.×150 mm, TOSOH, Japan) under the conditions of flow rate of 0.5 ml/min and column temperature at 40° C. Using solvent A (0.1% formic acid-acetonitrile) and solvent B (0.1% formic acid aqueous solution), the reaction product was eluted by linear gradient from 70% B in 0 minute to 85% A in 30 minutes. The reaction product was ionized by electrospray ionization method and cations were detected under the following conditions: spray voltage of 4.0 kV, capillary temperature at 300° C., nitrogen sheath of 40 units, and auxiliary gas of 15 units. In the MS/MS analysis of the reaction product [M+H]+, collision-induced dissociation (CID) was performed under the conditions below to detect the fragment peak: normalized collision energy of 35, activation Q of 0.25 and activation time for 30 ms.
MFB088 crude enzyme solution, 2 μl (containing 2.5 μg of proteins); 0.1 M KH2PO4/K2HPO4 solution (containing 0.4% ascorbic acid: pH 7.0), 88 μl; 0.048 nmoleriodictyol/5 μl of H2O; 0.001 nmol FAD and 0.48 nmol NADPH/5 μl of H2O.
MFB088 crude enzyme solution, 2 μl (containing 2.5 μg of protein); 0.1 M KH2PO4/K2HPO4 solution (containing 0.4% ascorbic acid: pH 7.0), 88 μl; 0.048 nmol luteolin/5 μl of H2O; 0.001 nmol FAD and 0.48 nmol NADPH/5 μl of H2O.
The reactivity requiring kaempferol and apigenin as substrates was analyzed. The reaction product was recovered in a manner similar to EXAMPLES described above and the components were analyzed by UPLC-TOF MS.

| Structure (SMILES) | hydroxylation of substrate by the MFB088 crude enzyme |
| --- | --- |
| O=c1cc(-c2ccc(O)cc2)oc2cc(O)cc(O)c12 [apigenin] | hydroxyl group is attached to apigenin |
| O=c1c(O)c(-c2ccc(O)cc2)oc2cc(O)cc(O)c12 [kaempferol] | hydroxyl group is attached to kaempferol at position 8 |
| O=C1C[C@@H](c2ccc(O)cc2)Oc2cc(O)cc(O)c21 [naringenin] | two hydroxyl groups were attached |
| O=c1c(O)c(-c2ccc(O)c(O)c2)oc2cc(O)cc(O)c12 [quercetin] | substituted with hydroxyl group at position 8 and converted into gossypetin |

Other lines, results leading:

| hydroxylation of substrate by the MFB088 crude enzyme | Structure (SMILES) |
| --- | --- |
| two hydroxyl groups were attached | O=C1c2c(O)cc(O)cc2O[C@H](c2ccc(O)c(O)c2)[C@H]1O [dihydroquercetin] |
| hydroxyl-substituted | O=C1C[C@@H](c2ccc(O)c(O)c2)Oc2cc(O)cc(O)c21 [eriodictyol] |
| hydroxyl group is attached to luteolin | O=c1cc(-c2ccc(O)c(O)c2)oc2cc(O)cc(O)c12 [luteolin] |

System: nuclear factor-κB (NF-κB)
Test: not given
Conditions: leading to cell apoptosis potentiation; cited from earlier work

| Structure (SMILES) | effect on activation of NF-κB |
| --- | --- |
| O=c1c(O)c(-c2ccc(O)c(O)c2)oc2c(O[C@@H]3O[C@H](CO)[C@@H](O)[C@H](O)[C@H]3O)c(O)cc(O)c12 [gossypin, gossypetin-8-glucoside] | inhibits the activation of nuclear factor-κB (NF-κB) |
